In patent US20160145247A1, “Aminomethyl-Biaryl Derivatives Complement Factor D inhibitors and uses thereof” (NOVARTIS AG, priority 2013, published 2016):
pIC50: −log10 of the molar value. Several values for one entry are separate records, joined by “and”; a condition that tells them apart may be missing. Equal values may be shown once.

Biological target: T1, factor D (Homo sapiens, UniProt P00746)
T1 construct: made in house; host or cells: E. coli
Test: factor D inhibition assay of Biological Example 2
Assay type: biochemical

T1 sequence (P00746 26-253): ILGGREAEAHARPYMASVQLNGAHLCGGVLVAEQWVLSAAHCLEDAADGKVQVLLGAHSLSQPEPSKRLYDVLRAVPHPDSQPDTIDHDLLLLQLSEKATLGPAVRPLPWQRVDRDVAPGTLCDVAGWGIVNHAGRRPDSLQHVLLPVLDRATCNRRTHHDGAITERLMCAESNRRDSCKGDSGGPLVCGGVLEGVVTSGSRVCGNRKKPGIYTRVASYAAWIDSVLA

pIC50 | Compound
8.22 | CCNc1cc(COc2ccccc2CC(=O)O)cc(-c2cccc([C@@H](C)N)c2F)c1 [Example 151, (R)-2-(2-((3′-(1-aminoethyl)-5-(ethylamino)-2′-fluoro-[1,1′-biphenyl]-3-yl)methoxy)phenyl)acetic acid]
7.96 | CC(C)Nc1cc(COc2ccccc2CC(=O)O)cc(-c2cccc([C@@H](C)N)c2F)c1 [Example 152, (R)-2-(2-((3′-(1-aminoethyl)-2′-fluoro-5-(isopropylamino)-[1,1′-biphenyl]-3-yl)methoxy)phenyl)acetic acid]
8.40 | C[C@@H](N)c1cccc(-c2cc(COc3ccccc3CC(=O)O)cc(NC[C@H]3CCCO3)c2)c1F [Example 153, 2-(2-((3′-((R)-1-Aminoethyl)-2′-fluoro-5-((((R)-tetrahydrofuran-2-yl)methyl)amino)-[1,1′-biphenyl]-3-yl)methoxy)phenyl)acetic acid]
5.75 | NCc1ccnc(-c2cccc(COc3ccccc3CC(=O)O)c2)n1 [Example 158-C, 2-(2-((3-(4-(Aminomethyl)pyrimidin-2-yl)benzyl)oxy)phenyl)acetic acid]
5.95 | NCc1cccc(-c2cccc(COc3ccccc3CC(=O)O)n2)c1 [Example 160, 2-(2-((6-(3-(aminomethyl)phenyl)pyridin-2-yl)methoxy)phenyl)acetic acid]
7.89 | NCc1cccc(-c2ccnc(COc3ccccc3CC(=O)O)c2)c1 [Example 164, 2-(2-((4-(3-(Aminomethyl)phenyl)pyridin-2-yl)methoxy)phenyl)acetic acid]
7.68 | NCc1cccc(-c2ccc(C(F)(F)F)c(COc3ccccc3CC(=O)O)c2)c1 [Example 165, 2-(2-((3′-(Aminomethyl)-4-(trifluoromethyl)-[1,1′-biphenyl]-3-yl)methoxy)phenyl)acetic acid]
7.64 | NCc1cccc(-c2ccc(F)c(COc3ccccc3CC(=O)O)c2)c1 [Example 166, 2-(2-((3′-(Aminomethyl)-4-fluoro-[1,1′-biphenyl]-3-yl)methoxy)phenyl)acetic acid]
7.52 | N[C@H](CO)c1cccc(-c2ccc(C(F)(F)F)c(COc3ccccc3CC(=O)O)c2)c1 [Example 167, (S)-2-(2-((3′-(1-Amino-2-hydroxyethyl)-4-(trifluoromethyl)-[1,1′-biphenyl]-3-yl)methoxy)phenyl)acetic acid]
7.57 | NCc1cccc(-c2cccc(COc3ccc(Br)cc3CC(=O)O)c2)c1 [Example 168, 2-(2-((3′-(Aminomethyl)-[1,1′-biphenyl]-3-yl)methoxy)-5-bromophenyl)acetic acid]
7.48 | COC[C@@H](N)c1cccc(-c2cccc(COc3ccccc3CC(=O)O)c2)c1 [Example 169, (S)-2-(2-((3′-(1-Amino-2-methoxyethyl)-[1,1′-biphenyl]-3-yl)methoxy)phenyl)acetic acid]
7.66 | N[C@H](CO)c1cccc(-c2ccnc(COc3ccccc3CC(=O)O)c2)c1 [Example 170, (S)-2-(2-((4-(3-(1-Amino-2-hydroxyethyl)phenyl)pyridin-2-yl)methoxy)phenyl)acetic acid]
6.83 | CCOC[C@@H](N)c1cccc(-c2cccc(COc3ccccc3CC(=O)O)c2)c1 [Example 173, (S)-2-(2-((3′-(1-Amino-2-ethoxyethyl)-[1,1′-biphenyl]-3-yl)methoxy)phenyl)acetic acid]
6.95 | NCc1cccc(-c2cccc(COc3c(Br)cccc3CC(=O)O)c2)c1 [Example 174, 2-(2-((3′-(Aminomethyl)-[1,1′-biphenyl]-3-yl)methoxy)-3-bromophenyl)acetic acid]
5.24 | NCc1ccc(F)c(-c2ccnc(COc3ccccc3CC(=O)O)c2)c1 [Example 176, 2-(2-((4-(5-(Aminomethyl)-2-fluorophenyl)pyridin-2-yl)methoxy)phenyl)acetic acid]
8.70 | Cc1ccc(S(=O)(=O)n2ncc3c(COc4ccccc4CC(=O)O)cc(-c4cccc(CN)c4)cc32)cc1 [Example 178, 2-(2-((6-(3-(Aminomethyl)phenyl)-1-tosyl-1H-indazol-4-yl)methoxy)phenyl)acetic acid]
8.40 | NCc1cccc(-c2cc(COc3ccccc3CC(=O)O)c3cn[nH]c3c2)c1 [Example 179, 2-(2-((6-(3-(Aminomethyl)phenyl)-1H-indazol-4-yl)methoxy)phenyl)acetic acid]
6.83 | C[C@@H](N)c1cccc(-c2ccnc(COc3ccccc3CC(=O)O)c2)c1 [Example 180, (R)-2-(2-((4-(3-(1-Aminoethyl)phenyl)pyridin-2-yl)methoxy)phenyl)acetic acid]
8.10 | NCc1cccc(-c2ccnc(COc3ccccc3CC(=O)O)c2)c1F [Example 182, 2-(2-((4-(3-(Aminomethyl)-2-fluorophenyl)pyridin-2-yl)methoxy)phenyl)acetic acid]
6.36 | COC[C@@H](N)c1cccc(-c2ccnc(COc3ccccc3CC(=O)O)c2)c1 [Example 184, (S)-2-(2-((4-(3-(1-amino-2-methoxyethyl)phenyl)pyridin-2-yl)methoxy)phenyl)acetic acid]
7.62 | Cc1cc(-c2cccc([C@H](N)CO)c2)cc(COc2ccccc2CC(=O)O)n1 [Example 185, (S)-2-(2-((4-(3-(1-Amino-2-hydroxyethyl)phenyl)-6-methylpyridin-2-yl)methoxy)phenyl)acetic acid]
7.85 | Cc1ccc(S(=O)(=O)n2ncc3c(COc4ccccc4CC(=O)O)cc(-c4cccc([C@H](N)CO)c4)cc32)cc1 [Example 186, (S)-2-(2-((6-(3-(1-Amino-2-hydroxyethyl)phenyl)-1-tosyl-1H-indazol-4-yl)methoxy)phenyl)acetic acid]
6.76 | NCc1cc(F)cc(-c2cccc(COc3ccccc3CC(=O)O)c2)c1 [Example 187, 2-(2-((3′-(Aminomethyl)-5′-fluoro-[1,1′-biphenyl]-3-yl)methoxy)phenyl)acetic acid]
7.77 | N[C@H](CO)c1cccc(-c2ccc(OC(F)(F)F)c(COc3ccccc3CC(=O)O)c2)c1 [Example 188, (S)-2-(2-((3′-(1-Amino-2-hydroxyethyl)-4-(trifluoromethoxy)-[1,1′-biphenyl]-3-yl)methoxy)phenyl)acetic acid]
7.39 | N[C@H](CO)c1cc(F)cc(-c2cccc(COc3ccccc3CC(=O)O)c2)c1 [Example 190-A]

pIC50 | Compound
5.92 | CC[C@@H](N)c1cccc(-c2cccc(COc3ccccc3CC(=O)O)c2)c1 [Example 190-C]
6.01 | C[C@H](O)[C@@H](N)c1cccc(-c2cccc(COc3ccccc3CC(=O)O)c2)c1 [Example 190-D]
7.47 | CCC[C@@H](N)c1cccc(-c2cccc(COc3ccccc3CC(=O)O)c2)c1 [Example 190-E]
5.50 | CC(C)[C@@H](N)c1cccc(-c2cccc(COc3ccccc3CC(=O)O)c2)c1 [Example 190-F]
6.91 | C[C@@H](O)[C@@H](N)c1cccc(-c2cccc(COc3ccccc3CC(=O)O)c2)c1 [Example 190-G]
5.95 | N[C@H](CCO)c1cccc(-c2cccc(COc3ccccc3CC(=O)O)c2)n1 [Example 190-H]
7.89 | N[C@H](CCO)c1cccc(-c2cccc(COc3ccccc3CC(=O)O)c2)c1F [Example 190-J]
6.88 | NCc1nc(-c2cccc(COc3ccccc3CC(=O)O)c2)cs1 [Example 190-K]
5.49 | CC(C)(N)c1cccc(-c2cccc(COc3ccccc3CC(=O)O)c2)c1F [Example 190-L]
4.69 and 4.68 | O=C(O)Cc1ccccc1OCc1cccc(-c2cccc(-c3nnn[nH]3)c2)c1 [Example 191, 2-(2-((3′-(1H-Tetrazol-5-yl)-[1,1′-biphenyl]-3-yl)methoxy)phenyl)acetic acid]
7.74 | N=C(N)c1cccc(-c2cccc(COc3ccccc3CC(=O)O)c2)c1 [Example 192-B, 2-(2-((3′-Carbamimidoyl-[1,1′-biphenyl]-3-yl)methoxy)phenyl)acetic acid]
7.32 | N[C@H](C(=O)O)c1cccc(-c2cccc(COc3ccccc3CC(=O)O)c2)c1 [Example 193, (S)-2-Amino-2-(3′-((2-(carboxymethyl)phenoxy)methyl)-[1,1′-biphenyl]-3-yl)acetic acid]
6.58 | CCC[C@@H](N)c1cccc(-c2cccc(COc3c(F)cccc3CC(=O)O)c2)c1 [Example 194, (R)-2-(2-((3′-(1-Aminobutyl)-[1,1′-biphenyl]-3-yl)methoxy)-3-fluorophenyl)acetic acid]
6.97 | CCC[C@@H](N)c1cccc(-c2cccc(COc3ccccc3CC(=O)O)c2)c1F [Example 195-B, (R)-2-(2-((3′-(1-Aminobutyl)-2′-fluoro-[1,1′-biphenyl]-3-yl)methoxy)phenyl)acetic acid]
4.95 | CCC[C@@H](N)c1cccc(-c2cccc(COc3ccccc3CC(=O)O)c2)n1 [Example 196-A]
6.69 | CCC[C@@H](N)c1cc(-c2cccc(COc3ccccc3CC(=O)O)c2)ccn1 [Example 196-B]
6.50 | NC(c1ccccc1)c1cccc(-c2cccc(COc3ccccc3CC(=O)O)c2)c1 (stereo not shown) [Example 196-C]
6.19 | CCCC[C@@H](N)c1cccc(-c2cccc(COc3ccccc3CC(=O)O)c2)c1 [Example 196-D]
6.57 | N#CC[C@@H](N)c1cccc(-c2cccc(COc3ccccc3CC(=O)O)c2)c1 [Example 196-E]
8.22 | NC(CF)c1cccc(-c2cccc(COc3ccccc3CC(=O)O)c2)c1F (stereo not shown) [Example 196-F]
5.97 | N[C@@H](c1cccc(-c2cccc(COc3ccccc3CC(=O)O)c2)c1)C1CC1 [Example 196-G]
5.93 | N[C@H](CC(F)(F)F)c1cccc(-c2cccc(COc3ccccc3CC(=O)O)c2)c1 [Example 196-H]
6.62 | N[C@H](CC1CC1)c1cccc(-c2cccc(COc3ccccc3CC(=O)O)c2)c1 [Example 196-I]
7.16 | CCC[C@@H](N)c1cccc(-c2cc(COc3ccccc3CC(=O)O)cc(NCC3CC3)c2)c1 [Example 197, (R)-2-(2-((3′-(1-Aminobutyl)-5-((cyclopropylmethyl)amino)-[1,1′-biphenyl]-3-yl)methoxy)phenyl)acetic acid]
